Laboratory results from patent publication US20080159995A1, “TREATMENT OF FIBROSIS” (priority 2006, published 2008).

Tests used:
[1] = cited from earlier work
[2] = system: A549 alveolar epithelial cells; experiment: alveolar epithelial cell wound repair model (in vitro epithelial wound-healing assay); assay type: cell-based, human; settings: mechanically wounded monolayer, FIG. 4
Protocol: In the present studies an alveolar epithelial cells wound repair model was employed. […] Closure of this wound was monitored over 24 hours following treatment.
The wound healing assays were performed utilising A549 alveolar epithelial cells. The epithelial repair activity was determined using an in-vitro epithelial wound-healing assay as described in Example 1 (Geiser T et al. Am J Respir Crit. Care Med. 2001; 163: 1384-1388) using human A549 alveolar epithelial-like cells (American Type Culture Collection, Rockville, Md.). Briefly, A549 epithelial cells were cultured to confluency in 12-well plates for 48 hours in minimal essential medium (MEM) containing 10% fetal bovine serum and then mechanically wounded with a pipette tip. Concentrated BALF from each patient was added to the wounded epithelial monolayers (experiments performed in triplicates) and the area of the wound was measured over a time period of 24 hours.

[3] = system: Transforming Growth Factor (TGF)-β-Connective Tissue Growth Factor (CTGF) interactions via a Rho signalling pathway; settings: recent studies, refs 1 and 2; cited from earlier work

| SMILES | solubility in acetonitrile ([1]; acetonitrile) | solubility in ethanol ([1]; ethanol) | solubility in methanol ([1]; methanol) | solubility in water ([1]; water) | wound closure [2] | anti-fibrotic potential (TGF-β-CTGF interactions, pro-fibrotic differentiation) [3] |
| --- | --- | --- | --- | --- | --- | --- |
| CCC(C)C(=O)OC1CC(C)C=C2C=CC(C)C(CCC3CC(O)CC(=O)O3)C21 (stereo not drawn) [Lovastatin, [8-[2-(4-hydroxy-6-oxo-oxan-2-yl)ethyl]-3,7-dimethyl-1,2,3,7,8,8a-hexahydronaphthalen-1-yl]2-methylbutanoate] | sparingly soluble | sparingly soluble | sparingly soluble | insoluble |  |  |
| CCC(C)(C)C(=O)O[C@H]1C[C@@H](C)C=C2C=C[C@@H](C)[C@H](CC[C@@H]3C[C@@H](O)CC(=O)O3)[C@H]21 [simvastatin, [(1S,3R,7R,8S,8aR)-8-[2-[(2R,4R)-4-hydroxy-6-oxo-oxan-2-yl]ethyl]-3,7-dimethyl-1,2,3,7,8,8a-hexahydronaphthalen-1 yl]2,2-dimethylbutanoate] |  |  |  |  | improves wound closure | over-riding Transforming Growth Factor (TGF)-β-Connective Tissue Growth Factor (CTGF) interactions |
